From patent publication US20230035892A1, “METHODS AND COMPOSITIONS FOR TREATING CANCER” (Flagship Pioneering Innovations V, Inc., priority 2019, published 2023)
Read-outs that look alike come from different tables or passages of the source.

What was measured:
Assay type in all cases: cell-based
[1] = tested on: PAXF1657 control empty vector; experiment: 7-day CellTiter-Glo anti-proliferative assay; conditions: for Emax: 168 h, read-out: Maximum % Growth inhibition relative to DMSO, geometric mean; for GI50: read-out: GI50, geometric mean
Method: (§1) Cell lines were seeded into tissue culture treated, white-walled, 96-well plates at a density of 500 cells/well in RPM11640 media supplemented with 10% H.I. FBS and penicillin/streptomycin. Plates were incubated overnight at 37° C., 5% CO2 to allow cells to adhere to the wells. GRK2 small molecule antagonists were added to the cells using a ten-point or five-point dilution series with a final concentration ranging from […] in 0.1% DMSO. At the time of compound addition, a set of plates that were not treated with compounds were collected and cell viability was measured using CellTiter-Glo (Promega). CellTiter-Glo reagent was added to the plates and luminescence was measured using a Biotek Synergy plate reader. The compound treated cells were incubated for 3 days at 37° C., 5% CO2. The media was then aspirated from each well and replaced with fresh media containing GRK2 small molecule antagonists. The compound treated cells were then incubated for another 4 days at 37° C., 5% CO2 and cell viability was assessed at the end of the 7-day compound treatment by CellTiterGlo.

[2] = tested on: PAXF1657 stably overexpressing GRK2 cDNA; experiment: 7-day CellTiter-Glo anti-proliferative assay; conditions: PAXF1657, sgNTC, pReceiver-GRK2, 5 or 10 point dose curve; for Emax: 168 h, read-out: Maximum % Growth inhibition relative to DMSO, geometric mean; for GI50: read-out: GI50, geometric mean
Method: as §1

[3] = tested on: PAXF1657 stable clone of GRK2 knockout; experiment: 7-day CellTiter-Glo anti-proliferative assay; conditions: PAXF1657, sgGRK2 #2 clonal KO, no cDNA, 10 point dose curve; for GI50: read-out: GI50, geometric mean
Method: as §1

[4] = tested on: sgGrk2-expressing PAXF1657 cells; experiment: Colony formation assay in sgGrk2-expressing cells (target specificity); conditions: PAXF1657, DMSO treatment; for Rel +dox: sgRNA induced (+dox)
Method: To assess the target specificity of the GRK2 small molecule antagonist of Formula III-26, sgGRK2-expressing cells were treated with the compound of Formula III-26. If GRK2 knockout is complete and the compound of Formula III-26 inhibits only GRK2, the addition of the compound of Formula III-26 should not induce any additional growth defect compared to sgRNA KO alone. […] This is potentially due to the lower GRK2 knockout efficiency that can be achieved in PAXF1657 compared to Miapaca2, as shown in Table 16.

[5] = tested on: Grk2 protein; experiment: Western Blot of Grk2 levels in PAXF1657 lines re-expressing cleavage-resistant Grk2 wild-type or kinase-dead cDNA; conditions: PAXF1657 expressing the sgRNA, cDNA Empty vector; for GRK2/GAPDH / GRK2 Adj. Vol. (Int): +dox
Excerpt: (§2) To test whether the Grk2 sgRNAs act through targeting Grk2, and to test whether the anti-proliferative effect results from loss of the Grk2 kinase activity, Grk2 sgRNA expressing PAXF1657 cell lines overexpressing Cas9/sgRNA-cleavage-resistant Grk2 wild-type or kinase-dead cDNA constructs were generated. Re-expression of Cas9/sgRNA-cleavage-resistant Grk2 wild-type or kinase-dead cDNA constructs led to increased Grk2 protein levels, as measured by Western Blot analysis and shown in Table 18.

[6] = tested on: Grk2 protein; experiment: Western Blot of Grk2 levels after doxycycline-induced sgRNA expression; conditions: PAXF1657, day 7, +dox
Method: To validate the findings from the CRISPR screen, Cas9-expressing pancreatic cell lines were generated that express doxycycline inducible sgRNAs targeting GRK2. Treatment of these cells with 100 ng/ml doxycycline for 3, 7 or 10 days induced a time-dependent depletion of Grk2 protein, confirming the on-target efficacy of the sgRNAs.

[7] = tested on: PAXF1657 cells; experiment: Growth (RFP/GFP ratio) of sgGrk2 PAXF1657 lines re-expressing Grk2 wild-type or kinase-dead cDNA; conditions: for sgRNA-induced growth inhibition on re-expression of Grk2 wild-type cDNA: cleavage-resistant Grk2 wild-type cDNA
Method: (§3) Next, experiments were performed to evaluate whether GRK2 knockout induced by doxycycline treatment results in a proliferation defect in pancreatic cancer cells. Pancreatic cancer cell lines expressing GRK2 sgRNAs as well as RFP were plated in a ratio of 1:1 with GFP expressing pancreatic cancer cells. Co-plated cells were cultured in the presence or absence of 100 ng/ml doxycycline over the course of 21 days, and the percentage of GFP and RFP-expressing cells was measured over time.
as §2

[8] = tested on: PAXF1657; experiment: RFP/GFP competition assay, doxycycline-induced GRK2 knockout
Method: as §3

[9] = PAXF1657, sgNTC, pReceiver-empty vector, 5 or 10 point dose curve
[10] = PAXF1657, day 3, 100 ng/ml doxycycline
[11] = PAXF1657, day 7, 100 ng/ml doxycycline
[12] = PAXF1657, day 10, 100 ng/ml doxycycline
[13] = PAXF1657, day 14, 100 ng/ml doxycycline
[14] = PAXF1657, day 17, 100 ng/ml doxycycline
[15] = PAXF1657, day 21, 100 ng/ml doxycycline

Compound	Emax [1, 9] [%]	Emax [2] [%]	GI50 [2] [µM]	GI50 [1, 9] [µM]	other results
O=C(NCc1cc[nH]n1)c1cc([C@@H]2CCNC[C@H]2COc2ccc3c(c2)OCO3)ccc1F [Compound of Formula II-26]	43.3	25.5	> 10	–	GI50 [1]: 1.49 µM
Fc1ccc([C@@H]2CCNC[C@H]2COc2ccc3[nH]ncc3c2)cc1CNCc1ccn[nH]1 [Compound of Formula II-33]	42.7	0	> 10	6.27	–
O=C(NCc1[nH]nc2ccccc12)c1cc([C@@H]2CCNC[C@H]2COc2ccc3c(c2)OCO3)ccc1F [Compound of Formula II-35]	–	–	–	3.37	–
COc1ccccc1CNC(=O)c1cccc(NCc2nnc(-c3ccncc3)[nH]2)c1 [Compound of Formula III-28]	76.8	64.7	14.7	0.653	Maximum % Growth inhibition relative to DMSO, geometric mean [3]: 78.8%; GI50 [3]: 17.9 µM
O=C(NCc1ccccc1)c1cccc(NCc2nnc(-c3ccncc3)[nH]2)c1 [Compound of Formula III-30]	73.1	65.5	3.4	4.91	Maximum % Growth inhibition relative to DMSO, geometric mean [3]: 63.5%; GI50 [3]: > 30 µM
Cn1c(CNc2cccc(C(=O)NCc3c(F)cccc3F)c2)nnc1-c1ccncn1 [Compound of Formula III-31]	31.6	29.8	> 10	> 10	–
CCCn1c(CNc2cccc(C(=O)NCc3ccccc3C(F)(F)F)c2)nnc1-c1ccncn1 [Compound of Formula III-35]	83.6	81.4	0.614	0.68	–
O=C(NCc1ccccc1C(F)(F)F)c1cccc(NCc2nnc(-c3ccncc3)n2CCO)c1 [Compound of Formula III-54]	89	87.3	2.71	2.52	–
O=C(NCc1ccccc1C(F)(F)F)c1cccc(NCc2nnc3n2CCOc2cnccc2-3)c1 [Compound of Formula III-55]	82.3	85.9	0.17	0.11	–
O=C(NCc1c(F)cccc1F)c1cccc(NCc2nnc3n2CCOc2cnccc2-3)c1 [Compound of Formula III-56]	46.5	28.3	> 10	> 10	–
sgGrk2-2: "sgGrk2-2 (SEQ ID NO: 3)"; "doxycycline inducible sgRNAs targeting GRK2" (guide GGTCCCGGTAGACCACGAAG; expressed or natural sequence)	–	–	–	–	Difference between rel +dox and −dox signal [4]: 0.21; Rel +dox [4]: 0.79; GRK2/GAPDH normalized to −dox [5]: −0.24; GRK2/GAPDH [5]: −0.01; GRK2 Adj. Vol. (Int) [5]: −189,385.63; GRK2/GAPDH normalized to −dox [6]: 0.20; GRK2/GAPDH ratio [6]: 0.06; GRK2 Avg. Intensity [6]: 2,133,921.03; sgRNA-induced growth inhibition on re-expression of Grk2 kinase-dead cDNA ([7]; cleavage-resistant Grk2 kinase-dead cDNA): did not; sgRNA-induced growth inhibition on re-expression of Grk2 wild-type cDNA [7]: reduced the sgRNA-induced growth inhibition; RFP/GFP ratio +dox normalized to RFP/GFP ratio −dox [8, 10]: 1.00; RFP/GFP ratio +dox normalized to RFP/GFP ratio −dox [8, 11]: 0.89; RFP/GFP ratio +dox normalized to RFP/GFP ratio −dox [8, 12]: 0.76; RFP/GFP ratio +dox normalized to RFP/GFP ratio −dox [8, 13]: 0.69; RFP/GFP ratio +dox normalized to RFP/GFP ratio −dox [8, 14]: 0.57; RFP/GFP ratio +dox normalized to RFP/GFP ratio −dox [8, 15]: 0.44
sgGrk2-3: "sgGrk2-3 (SEQ ID NO: 4)"; "doxycycline inducible sgRNAs targeting GRK2" (guide GCACCCCAGAGAGAACCAGT; expressed or natural sequence)	–	–	–	–	Difference between rel +dox and −dox signal [4]: 0.36; Rel +dox [4]: 0.64; GRK2/GAPDH normalized to −dox [5]: −2.47; GRK2/GAPDH [5]: −0.04; GRK2 Adj. Vol. (Int) [5]: −514,147.69; GRK2/GAPDH normalized to −dox [6]: 0.28; GRK2/GAPDH ratio [6]: 0.16; GRK2 Avg. Intensity [6]: 2,026,964.66; sgRNA-induced growth inhibition on re-expression of Grk2 wild-type cDNA [7]: less efficient; RFP/GFP ratio +dox normalized to RFP/GFP ratio −dox [8, 10]: 0.92; RFP/GFP ratio +dox normalized to RFP/GFP ratio −dox [8, 11]: 0.83; RFP/GFP ratio +dox normalized to RFP/GFP ratio −dox [8, 12]: 0.64; RFP/GFP ratio +dox normalized to RFP/GFP ratio −dox [8, 13]: 0.44; RFP/GFP ratio +dox normalized to RFP/GFP ratio −dox [8, 14]: 0.27; RFP/GFP ratio +dox normalized to RFP/GFP ratio −dox [8, 15]: 0.24
